Assay results as given in PMC4396695, “Structure of the Ribosomal Oxygenase OGFOD1 Provides Insights into the Regio- and Stereoselectivity of Prolyl Hydroxylases” (Structure(London, England:1993), 2015).

Legend:
[1] = target: T1, Tpa1p (Saccharomyces cerevisiae, UniProt P40032); assay: X-ray crystal structure, […] Å; type: binding
T1 construct: gene TPA1; full-length (644 aa), N-terminal hexa-histidine tag

[2] = target: T2, OGFOD1 (Homo sapiens, UniProt Q8N543); assay: hydroxylation of uS12 […]-70 peptide by MALDI-TOF MS; type: biochemical; design: 542 aa, N-terminal hexa-histidine tag
T2 sequence (Q8N543 1-542): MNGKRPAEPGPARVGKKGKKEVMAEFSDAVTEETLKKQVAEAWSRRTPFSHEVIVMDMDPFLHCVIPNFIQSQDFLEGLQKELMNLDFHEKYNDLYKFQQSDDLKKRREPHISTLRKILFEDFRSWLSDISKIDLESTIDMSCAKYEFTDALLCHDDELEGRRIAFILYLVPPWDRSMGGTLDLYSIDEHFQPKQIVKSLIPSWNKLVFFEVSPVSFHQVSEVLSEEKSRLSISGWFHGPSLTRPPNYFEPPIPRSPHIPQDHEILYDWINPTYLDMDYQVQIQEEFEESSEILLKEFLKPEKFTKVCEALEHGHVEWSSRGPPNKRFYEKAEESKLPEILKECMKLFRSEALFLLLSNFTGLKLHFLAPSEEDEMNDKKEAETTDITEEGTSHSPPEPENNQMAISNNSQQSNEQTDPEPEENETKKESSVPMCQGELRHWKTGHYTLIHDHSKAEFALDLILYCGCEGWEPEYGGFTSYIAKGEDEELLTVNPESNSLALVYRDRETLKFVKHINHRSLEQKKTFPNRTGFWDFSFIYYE

[3] = target: T1, Tpa1p; assay: X-ray crystal structure, […] Å; type: binding; remark: listed apart in the source
[4] = target: T2, OGFOD1; assay: X-ray crystal structure, […] Å (also enzyme inhibition, Figure 6A); type: binding; design: full-length (542 aa), N-terminal hexa-histidine tag

T1 sequence (P40032 whole entry): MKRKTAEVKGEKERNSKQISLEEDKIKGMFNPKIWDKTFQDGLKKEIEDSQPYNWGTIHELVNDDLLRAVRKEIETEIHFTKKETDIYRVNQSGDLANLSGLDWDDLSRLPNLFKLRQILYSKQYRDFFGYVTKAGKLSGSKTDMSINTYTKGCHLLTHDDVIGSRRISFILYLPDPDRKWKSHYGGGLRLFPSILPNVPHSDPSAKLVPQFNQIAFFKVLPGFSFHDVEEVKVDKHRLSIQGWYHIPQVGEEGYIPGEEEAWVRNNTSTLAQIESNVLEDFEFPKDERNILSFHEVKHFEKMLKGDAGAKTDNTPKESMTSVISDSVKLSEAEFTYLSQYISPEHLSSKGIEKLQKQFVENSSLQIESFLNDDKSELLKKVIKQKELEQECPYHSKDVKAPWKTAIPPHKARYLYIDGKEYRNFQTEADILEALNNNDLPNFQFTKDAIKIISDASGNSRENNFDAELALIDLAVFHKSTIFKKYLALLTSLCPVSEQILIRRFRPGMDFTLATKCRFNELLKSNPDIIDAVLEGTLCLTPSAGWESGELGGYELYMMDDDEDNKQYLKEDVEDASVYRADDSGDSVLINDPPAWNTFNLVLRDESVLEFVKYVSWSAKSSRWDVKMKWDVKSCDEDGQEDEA

| X-ray crystal structure, 2.8 Å [3] | Compound | X-ray crystal structure, 1.9 Å [1] | IC50 [2] [µM] | X-ray crystal structure, 2.1 Å (also enzyme inhibition, Figure 6A) [4] |
| --- | --- | --- | --- | --- |
| – | O=C(O)CNC(=O)c1nc(Cl)c2ccccc2c1O [IOX3, 1-chloro-4-hydroxyisoquinoline-3-carbonylglycine] | In Tpa1p, IOX3 binds similarly to NOG with its glycyl side chain carboxylate positioned to form a salt bridge | 0.52 ± 0.08 | – |
| OGFOD1 and Tpa1p bind NOG similarly. | O=C(O)CNC(=O)C(=O)O [N-oxalylglycine] | – | – | With OGFOD1 the C-5 carboxylate of NOG is positioned to form hydrogen bonds to the side chains of Tyr169 and Arg230 |
